We go through one substance from patent US20060045891A1, “Density-matched suspension vehicles and pharmaceutical suspensions” (priority 2004, published 2006).

A short description of this series: Suspension of spheres: sphere placed in the vehicle and centrifuged. Type of series: physicochemical. Particulars: Lucite sphere density 1.20 g/cc; two minutes at 1000 rpm; no calcium carbonate particles. The source says: Precipitated calcium carbonate particles (density 2.71 g/cc and average particle size 0.7 microns) were mixed with Vitamin E (density 0.95 g/cc) at a particle weight fraction of 0.333 (15% by volume of dense particles) to create a suspending vehicle. According to equation (1), the density of the suspending vehicle is 1.21 g/cc.
A small Delrin sphere (density 1.35 g/cc, 3/32″ diameter) was placed in a first container holding the suspending vehicle.
A Lucite sphere (density 1.20 g/cc, 3/32″ diameter) was placed in a second container holding the suspending vehicle and centrifuged at 2000 rpm for 2 minutes.
In contrast, the Lucite sphere was placed in a third container of pure Vitamin E only and centrifuged for two minutes at 1000 rpm.

On to Vitamin E, for which the “behaviour of Lucite sphere in the vehicle after centrifuging” value was “sank to the bottom of the container in less than one minute”.
